System: collagen 1
Assay: WI-38 collagen 1 inhibition assay (anti-Collagen I immunofluorescence);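 further: minus sign means inactive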
Assay type: cell-based
Conditions: cellular EC50, WI-38 human lung fibroblasts, values are LogEC50 classes
Description: WI-38 cells (ATCC® CCL-75™) were maintained in MEM EAGLE (NEAA) W. GLUTAMIN (Biological Industries, Cat. 06-1040-15-1A) containing 10% fetal bovine serum (FBS) and 1% Penicillin-Streptomycin Solution. To synchronize the cells (cell cycle synchronization) prior to induction of collagen synthesis, the cells were starved using DMEM-low glucose supplemented with 0.25% FBS for two hours and then without FBS for 24 hours. To induce collagen synthesis, the cells were treated with a collagen induction cocktail for the indicated time. Compounds were added with induction.
Cells in 96-well or 384-well plates were fixed for 20 min in 4% paraformaldehyde (PFA, ENCO, Cat. sc-281692). Following two washes with 1×PBS, cells were treated with hydrogen peroxide (Acros, Cat: 7722-84-1) for 10 minutes and then washed twice with 1×PBS. Cells were then incubated over-night at 4° C. with Anti-Collagen I (Sigma-Aldrich, Cat: C 2456) antibody and washed three times with 1×PBS. Cell were then incubated with a suitable secondary fluorescently-tagged antibody and nuclei stained with DAPI, for 1 hour, and then washed 3 times with 1×PBS.
Cell images were taken with Operetta (Perkin Elmer, USA), a wide-field fluorescence microscope at 20× magnification. After acquisition, the images were transferred to Columbus software (Perkin-Elmer) for image analysis. In Columbus, cells were identified by their nucleus, using the “Find Nuceli” module and cytoplasm was detected based on the secondary antibody channel. Subsequently, the fluorescent signal was enumerated in the identified cell region. Data was exported to a data analysis and visualization software, Tibco Spotfire, USA.

| SMILES | COL1 Efficacy (LogEC50) |
| --- | --- |
| c1ccc(-c2nc3c(c(N4CCN(Cc5cc6ccccc6[nH]5)CC4)n2)CCC3)cc1 [compound 207] | ++ (++: −5 to −6) |
| Cn1cc(N2CCN(Cc3nc4ccccc4o3)CC2)nn1 [compound 322] | + (+: >−5) |
| C#CCCC1(CCOc2cncnc2N2CCN(Cc3cc4ccccc4[nH]3)CC2)N=N1 [compound 337, 2-((4-(5-(2-(3-(but-3-yn-1-yl)-3H-diazirin-3-yl)ethoxy)pyrimidin-4-yl)piperazin-1-yl)methyl)-1H-indole] | ++ (++: −5 to −6) |
| Brc1ccc2[nH]c(CN3CCN(c4ccncc4)CC3)cc2c1 [compound 215, 5-bromo-2-[[4-(4-pyridyl)piperazin-1-yl]methyl]-1H-indole] | − |
| c1ccc2[nH]c(CN3CCCN(c4ccncc4)CC3)cc2c1 [compound 273, 2-[[4-(4-pyridyl)-1,4-diazepan-1-yl]methyl]-1H-indole] | − |
| c1cc(N2CCN(Cc3cc4ccncc4[nH]3)CC2)ccn1 [compound 270, 2-[[4-(4-pyridyl)piperazin-1-yl]methyl]-1H-pyrrolo[2,3-c]pyridine] | − |
| O=C(Nc1ccc2[nH]c(CN3CCN(c4ccncc4)CC3)cc2c1)c1ccccc1 [compound 249, N-[2-[[4-(4-pyridyl)piperazin-1-yl]methyl]-1H-indol-5-yl]benzamide] | +++ (+++: <−6) |
| c1ccc(N2CCN(Cc3cc4ccccc4[nH]3)CC2)cc1 [compound 241, 2-[(4-phenylpiperazin-1-yl)methyl]-1H-indole] | ++ (++: −5 to −6) |
| Cc1ncnc(N2CCN(Cc3nc4ccc(F)cc4o3)CC2)c1Cl [compound 327, 2-((4-(5-chloro-6-methylpyrimidin-4-yl)piperazin-1-yl)methyl)-6-fluorobenzo[d]oxazole] | ++ (++: −5 to −6) |
| Cn1nccc1N1CCN(Cc2nc3ccccc3o2)CC1 [compound 325] | − |
| c1ccc2[nH]c(CN3CCN(c4ccnc5[nH]ccc45)CC3)cc2c1 [compound 242, 4-[4-(1H-indol-2-ylmethyl)piperazin-1-yl]-1H-pyrrolo[2,3-b]pyridine] | + (+: >−5) |
| Cc1ncnc(N2CCN(Cc3nc4ccc(C(F)(F)F)cc4[nH]3)CC2)c1C [Compound 201, 2-((4-(5,6-dimethylpyrimidin-4-yl)piperazin-1-yl)methyl)-6-(trifluoromethyl)-1H-benzo[d]imidazole] | +++ (+++: <−6) |
| N#Cc1c(CN2CCN(c3ccncc3)CC2)[nH]c2ccccc12 [compound 280, 2-[[4-(4-pyridyl)piperazin-1-yl]methyl]-1H-indole-3-carbonitrile] | − |
| Cc1ncnc(N2CCN(Cc3nc4c(F)cccc4o3)CC2)c1C [compound 293, 2-((4-(5,6-dimethylpyrimidin-4-yl)piperazin-1-yl)methyl)-4-fluorobenzo[d]oxazole] | ++ (++: −5 to −6) |
| N#Cc1ccc2[nH]c(CN3CCN(c4ccncc4)CC3)cc2c1 [compound 256, 2-[[4-(4-pyridyl)piperazin-1-yl]methyl]-1H-indole-5-carbonitrile] | +++ (+++: <−6) |
| c1ccc2[nH]c(CN3CCN(c4nccs4)CC3)cc2c1 [Compound 229, 2-[4-(1H-indol-2-ylmethyl)piperazin-1-yl]thiazole] | ++ (++: −5 to −6) |
| FC(F)(F)c1ccc2nc(CN3CCN(c4ccccc4)CC3)[nH]c2c1 [compound 200] | − |
| c1cc(N2CCN(Cc3ccc4[nH]ccc4c3)CC2)ccn1 [compound 264, 5-[[4-(4-pyridyl)piperazin-1-yl]methyl]-1H-indole] | − |

| SMILES | COL1 Efficacy (LogEC50) |
| --- | --- |
| CCn1cc(N2CCN(Cc3nc4ccccc4o3)CC2)nn1 [compound 328] | − |
| Cc1ncnc(N2CCN(Cc3[nH]c4ccc(Cl)cc4c3C)CC2)c1C [compound 204] | ++ (++: −5 to −6) |
| c1ccc2nc(N3CCN(Cc4cc5ccccc5[nH]4)CC3)ccc2c1 [Compound 237, 2-[4-(1H-indol-2-ylmethyl)piperazin-1-yl]quinolone] | ++ (++: −5 to −6) |
| Cc1ncnc(N2CCN(Cc3nc4ccccc4o3)CC2)c1F [compound 309, 2-((4-(5-fluoro-6-methylpyrimidin-4-yl)piperazin-1-yl)methyl)benzo[d]oxazole] | ++ (++: −5 to −6) |
| c1ccc2[nH]c(CN3CCC(c4ccncc4)CC3)cc2c1 [compound 269, 2-[[4-(4-pyridyl)-1-piperidyl]methyl]-1H-indole] | − |
| c1ccc2[nH]c(CN3CCN(c4nccc5ccccc45)CC3)cc2c1 [compound 234] | + (+: >−5) |
| c1ccc2[nH]c(CN3CCN(c4ccc5cn[nH]c5c4)CC3)cc2c1 [Compound 286, 6-(4-((1H-indol-2-yl)methyl)piperazin-1-yl)-1H-indazole] | − |
| Cc1cccnc1N1CCN(Cc2cc3ccccc3[nH]2)CC1 [Compound 238, 2-[[4-(3-methyl-2-pyridyl)piperazin-1-yl]methyl]-1H-indole] | ++ (++: −5 to −6) |
| FC(F)(F)c1cccnc1N1CCN(Cc2cc3ccccc3[nH]2)CC1 [Compound 225, 2-[[4-[3-(trifluoromethyl)-2-pyridyl]piperazin-1-yl]methyl]-1H-indole] | + (+: >−5) |
| C[C@@H]1CN(Cc2cc3ccccc3[nH]2)C[C@H](C)N1c1ccncc1 [compound 276, 2-[[(3S,5R)-3,5-dimethyl-4-(4-pyridyl)piperazin-1-yl]methyl]-1H-indole] | − |
| FC(F)(F)c1ccc2nc(CN3CCN(c4ccncn4)CC3)[nH]c2c1 [Compound 203, 2-((4-(pyrimidin-4-yl)piperazin-1-yl)methyl)-6-(trifluoromethyl)-1H-benzo[d]imidazole] | ++ (++: −5 to −6) |
| Cc1ccc2[nH]c(CN3CCN(c4ccncc4)CC3)cc2c1 [compound 252, 5-methyl-2-[[4-(4-pyridyl)piperazin-1-yl]methyl]-1H-indole] | ++ (++: −5 to −6) |
| c1ccc(N2CCN(Cc3cc4ccccc4[nH]3)CC2)nc1 [Compound 216, 2-[[4-(2-pyridyl)piperazin-1-yl]methyl]-1H-indole] | + (+: >−5) |
| FC(F)(F)c1ccc2[nH]c(CN3CCN(c4ccncc4)CC3)cc2c1 [compound 226, 2-[[4-(4-pyridyl)piperazin-1-yl]methyl]-5-(trifluoromethyl)-1H-indole] | + (+: >−5) |
| c1ccc2[nH]c(CN3C[C@@H]4CN(c5ccncc5)C[C@@H]4C3)cc2c1 [compound 285, 2-[[(3aS,6aR)-5-(4-pyridyl)-1,3,3a,4,6,6a-hexahydropyrrolo[3,4-c]pyrrol-2-yl]methyl]-1H-indole] | − |
| c1ccc(-c2ccc3[nH]c(CN4CCN(c5ccncc5)CC4)cc3c2)cc1 [compound 219, 5-phenyl-2-[[4-(4-pyridyl)piperazin-1-yl]methyl]-1H-indole] | − |
| C#CCCC1(CCOc2ccc3cc(CN4CCN(c5ncncc5CC)CC4)[nH]c3c2)N=N1 [compound 338, 6-(2-(3-(but-3-yn-1-yl)-3H-diazirin-3-yl)ethoxy)-2-((4-(5-ethylpyrimidin-4-yl)piperazin-1-yl)methyl)-1H-indole] | +++ (+++: <−6) |
